Data taken from patent US10058525B2, “Application of chlorogenic acid in preparing medicines for treating lupus erythematosus” (SICHUAN JIUZHANG BIOLOGICAL SCIENCE AND TECHNOLOGY CO., LTD., priority 2015, dated 2018).
Entries after “also recorded” stand apart in the source; their conditions may differ.

Key:
[1] = tested on: ENA polypeptide antibodies (anti-Sm, anti-Rib, anti-ssA, anti-ssB); test: Serologic detection of ENA polypeptide antibodies by immunoblotting in serum of UV + LPS lupus model mice; assay type: in vivo, BALB/c mice; parameters: key to Anti-Rib: (+): positive; (−): negative; key to Anti-Sm / Anti-ssA / Anti-ssB: (+): positive; (−): negative; (++++): intenseintensity; (+++): stronger fluorescent intensity; details: for Anti-Rib / Anti-Sm / Anti-ssA / Anti-ssB: positive controls (artesunate 2 mg/kg*d, prednisone 1 mg/kg*d) by stomach perfusion; for ENA polypeptide antibodies found positive (FIG. 1): treated 14 days, positive controls (artesunate, prednisone)
Experimental: (§1) The back of mice was shaved and acutely exposed to Ultraviolet of 2 h/d*3 d, with a distance of 30 cm. After exposure to UV, 2.5 mg/kg of LPS was administrated once by ip, and after 24 h, the model was successfully established; the mice in the normal control group received normal saline via ip. 24 h after injection of LPS (ip), medicines were given to the model mice by intragastric administration. Chlorogenic acid test groups received high, middle, and low doses of medicines, by intragastric administration at a respective dosage of 10 mg/kg*d, 20 mg/kg*d, and 40 mg/kg*d. The positive control group A received 2 mg/kg*d of artesunate by stomach perfusion, while the positive control group B received 1 mg/kg*d of prednisone by stomach perfusion. Mice in the model and normal control group all received 0.4 ml/mouse normal saline by gavage. After 15 days of administration, animals in each group were taken blood by separating eyeballs on days 14, 21, 28, and after cultured in water bath at 37° C. for 1 h, the blood sample was centrifugated at 2000 r/min for 5 min, to draw serum for use. On day 21, after blood collection, animals were sacrificed by dislocation, followed by collection of liver and kidney, and they were placed in fixative solutions of electron microscope and light microscrope, respectively. Serum of mice was diluted at 1:100 with special buffer solution of Shenzhen Hengjia, and then 200 μL of diluted serum was respectively added to the reactive tank with corresponding number, cultured in the incubator at 37° C. for 30 min, and washed with the buffer solution four times, 2 min for each time; 200 μL of diluted biotin goat anti-mouse IgG (1:100) was added, cultured in the incubator at 37° C. for 30 min, and then washed with the buffer solution four times, 2 min for each time; 100 μL of diluted HRP-avidin (1:100) was added, cultured in the incubator at 37° C. for 30 min, and then washed as mentioned-above; reactive solutions A and B were added till appearance of positive bands, then washed with the buffer solution. Compared with the standard bands of ENA polypeptide antibody spectrum in the same kit, if the positive bands appeared at 28/29,13.5 ku polypeptide; 15,16.5,38 kupolypeptide; 52 kupolypeptide and 47/48,45 kupolypeptide, that can be determined as anti-Sm, anti-Rib, anti-ssA, and anti-ssB positive antibody. Serum was diluted with PBS at 1:40, then 20-30 μL of diluted serum was dropped into the scrobiculus of HEp-2 cell sheets, each cell sheet for each group. In the process of dropping serum, it should be noted that the surface of cell sheet can not be touched. After addition of serum, cell sheet was placed in wet box and kept for 30 min at room temperature (25° C.). After 30 min, the cell sheet was taken out, and serum was carefully washed out with PBS, then carefully washed twice with PBS, 5 min for each time; after washing, the remained PBS was removed by special absorbent paper of […] company (In this process, it should be noted that becoming dry of cell substrates will affect the results). 20-30 μL of diluted (PBS, 1:100) FITC goat anti-mouse IgG was added by dropping, and then incubated in wet box at room temperature for 30 min. After washing with PBS, steps were same to above. The remained PBS was removed by absorbent paper, and 1-2 drops of fluorescent mounting media were added to the cell sheet. The cover glass was mounted, observed under Olympus BH-2 universal microscope, and then photographed.

[2] = tested on: lupus erythematosus model mice (kidney, liver); test: Triple staining (silver staining) of kidney and liver sections under light microscope, lupus model mice; assay type: in vivo, BALB/c mice; details: positive controls (artesunate, prednisone); for basilar membrane of renal glomerulus and tubule, pathological section: 21 days; for glomerular basement membrane thickness compared with the normal mice (FIG. 9, FIG. 10): 28 days, ×50
Experimental: (§2) The back of mice was shaved and acutely exposed to Ultraviolet of 2 h/d*3 d, with a distance of 30 cm. After exposure to UV, 2.5 mg/kg of LPS was administrated once by ip, and after 24 h, the model was successfully established; the mice in the normal control group received normal saline via ip. 24 h after injection of LPS (ip), medicines were given to the model mice by intragastric administration. Chlorogenic acid test groups received high, middle, and low doses of medicines, by intragastric administration at a respective dosage of 10 mg/kg*d, 20 mg/kg*d, and 40 mg/kg*d. The positive control group A received 2 mg/kg*d of artesunate by stomach perfusion, while the positive control group B received 1 mg/kg*d of prednisone by stomach perfusion. Mice in the model and normal control group all received 0.4 ml/mouse normal saline by gavage. After 15 days of administration, animals in each group were taken blood by separating eyeballs on days 14, 21, 28, and after cultured in water bath at 37° C. for 1 h, the blood sample was centrifugated at 2000 r/min for 5 min, to draw serum for use. On day 21, after blood collection, animals were sacrificed by dislocation, followed by collection of liver and kidney, and they were placed in fixative solutions of electron microscope and light microscrope, respectively.
[…] The thickness of slice is 3 μm, and at beginning of staining, wax was routinely deprived to water. After oxidation with 0.5% periodic acid, the slice was macerated in hexamine silver fluid for about 2 h (constant temperature 58° C.), washed with distilled water, dyed with hematoxylin for 1 min. After washing with water, the slice was dyed by dropping the ponceau staining solution for 5 min, differentiated with 70% ethanol, dehydrated with gradient ethanol, cleared with xylene, and sealed with neutral gum.

ANA [3] = test: Serologic detection of ANA by immunofluorescence on HEp-2 cell sheets, serum of UV + LPS lupus model mice; assay type: in vivo, BALB/c mice; parameters: key: (+): positive; (−): negative; (++++): intenseintensity; (+++): stronger fluorescent intensity; details: day 14; positive controls (artesunate 2 mg/kg*d, prednisone 1 mg/kg*d) by stomach perfusion
Experimental: as §1

ANA [4] = test: as above; assay type: in vivo, BALB/c mice; details: artesunate, 28 days, ×200
Experimental: The back of mice was shaved and acutely exposed to Ultraviolet of 2 h/d*3 d, with a distance of 30 cm. After exposure to UV, 2.5 mg/kg of LPS was administrated once by ip, and after 24 h, the model was successfully established; the mice in the normal control group received normal saline via ip. 24 h after injection of LPS (ip), medicines were given to the model mice by intragastric administration. Chlorogenic acid test groups received high, middle, and low doses of medicines, by intragastric administration at a respective dosage of 10 mg/kg*d, 20 mg/kg*d, and 40 mg/kg*d. The positive control group A received 2 mg/kg*d of artesunate by stomach perfusion, while the positive control group B received 1 mg/kg*d of prednisone by stomach perfusion. Mice in the model and normal control group all received 0.4 ml/mouse normal saline by gavage. After 15 days of administration, animals in each group were taken blood by separating eyeballs on days 14, 21, 28, and after cultured in water bath at 37° C. for 1 h, the blood sample was centrifugated at 2000 r/min for 5 min, to draw serum for use. On day 21, after blood collection, animals were sacrificed by dislocation, followed by collection of liver and kidney, and they were placed in fixative solutions of electron microscope and light microscrope, respectively. Serum of mice was diluted at 1:100 with special buffer solution of Shenzhen Hengjia, and then 200 μL of diluted serum was respectively added to the reactive tank with corresponding number, cultured in the incubator at 37° C. for 30 min, and washed with the buffer solution four times, 2 min for each time; 200 μL of diluted biotin goat anti-mouse IgG (1:100) was added, cultured in the incubator at 37° C. for 30 min, and then washed with the buffer solution four times, 2 min for each time; 100 μL of diluted HRP-avidin (1:100) was added, cultured in the incubator at 37° C. for 30 min, and then washed as mentioned-above; reactive solutions A and B were added till appearance of positive bands, then washed with the buffer solution. Compared with the standard bands of ENA polypeptide antibody spectrum in the same kit, if the positive bands appeared at 28/29,13.5 ku polypeptide; 15,16.5,38 kupolypeptide; 52 kupolypeptide and 47/48,45 kupolypeptide, that can be determined as anti-Sm, anti-Rib, anti-ssA, and anti-ssB positive antibody. Serum was diluted with PBS at 1:40, then 20-30 μL of diluted serum was dropped into the scrobiculus of HEp-2 cell sheets, each cell sheet for each group. In the process of dropping serum, it should be noted that the surface of cell sheet can not be touched. After addition of serum, cell sheet was placed in wet box and kept for 30 min at room temperature (25° C.). […]

ANA [5] = test: as above; assay type: in vivo, BALB/c mice; parameters: key: (+): positive; (−): negative; (++++): intense fluorescence; (+++): stronger fluorescence; (++): weeker fluorescence; details: positive controls (artesunate 2 mg/kg*d, prednisone 1 mg/kg*d) by stomach perfusion
Experimental: as §1

[6] = tested on: lupus erythematosus model mice (renal glomerular capsule wall epithelial cells); test: Electron microscope observation of kidney samples, lupus model mice; assay type: in vivo, BALB/c mice; details: positive controls (artesunate, prednisone), 21 days; compared with the model group
Experimental: as §2, with “respectively. On day 21, the sample used for observation under electron microscope was fixed in mixed stationary solution of 2% paraformaldehyde+0.25% glutaral for 4 h, rinsed with TBS, treated with 1% osmic acid, followed by fixation for 1 h, rinsed with buffer solution, dehydrated with acetone, dyed with uranyl acetate for 2 h, macerated in Epon812 and embedded, and cut into slices with LEICA ultramicrotome. The slices were stained with lead solution, and the sample was observed under transmission electron microscope when it was dry.” for “respectively.”

lupus erythematosus = test: Screening medicines for treatment of lupus erythematosus; details: screening of extracts and potency constituents; no method given

Row | Structure (SMILES) | Anti-Rib ([1]; day 14) | Anti-Sm ([1]; day 14) | Anti-ssA ([1]; day 14) | Anti-ssB ([1]; day 14) | Anti-Rib ([1]; day 21) | Anti-Sm ([1]; day 21) | Anti-ssA ([1]; day 21) | Anti-ssB ([1]; day 21) | Anti-Rib ([1]; day 28) | Anti-Sm ([1]; day 28) | Anti-ssA ([1]; day 28) | Anti-ssB ([1]; day 28) | ENA polypeptide antibodies found positive (FIG. 1) [1] | basilar membrane of renal glomerulus and tubule, pathological section [2] | glomerular basement membrane thickness compared with the normal mice (FIG. 9, FIG. 10) [2] | ANA (ANA [3]) | ANA (ANA [5]; day 21) | ANA (ANA [5]; day 28) | proliferative degree of renal glomerular capsule wall epithelial cells [6] | inhibition on lupus erythematosus (lupus erythematosus) | also measured
1 | C[C@H]1[C@H](OC(=O)CCC(=O)O)O[C@@H]2O[C@@]3(C)CC[C@H]4[C@H](C)CC[C@@H]1[C@@]24OO3 [Artesunate, artesunate, reference compound] | (+) | (+) | (+) | (+) | (+) | (+) | (+) | (+) | (−) | (+) | (+) | (+) | anti-Sm, anti-ssA and anti-ssB bodies are positive | increased thickness compared with the normal mice | increased thickness | (++++) | (+++) | (+++) | slightly relieves; also recorded: somewhat relieved |  | fluorescence intensity of ANA (FIG. 5) (ANA [4]): doesn't decrease
2 | O=C(O)C1=CO[C@@H](O[C@@H]2O[C@H](CO)[C@@H](O)[C@H](O)[C@H]2O)[C@@H]2C(CO)=CC[C@H]12 [geniposidic acid] |  |  |  |  |  |  |  |  |  |  |  |  |  |  |  |  |  |  |  | relatively obvious inhibition | 
3 | C[C@]12C=CC(=O)C=C1CC[C@@H]1[C@@H]2C(=O)C[C@@]2(C)[C@H]1CC[C@]2(O)C(=O)CO [Prednisone, prednisone, reference compound] | (+) | (+) | (+) | (+) | (+) | (+) | (+) | (+) | (+) | (+) | (+) | (+) | anti-Sm, anti-ssA and anti-ssB bodies are positive | increased thickness compared with the normal mice | obviously increased thickness | (++++) | (+++) | (+++) | slightly relieves; also recorded: somewhat relieved |  | 
4 | OCC1=C[C@@H](O)[C@@H]2C=CO[C@@H](O[C@@H]3O[C@H](CO)[C@@H](O)[C@H](O)[C@H]3O)[C@H]12 [aucubin] |  |  |  |  |  |  |  |  |  |  |  |  |  |  |  |  |  |  |  | relatively obvious inhibition | 
